Values after ≈ are worked out from the molar mass of the structure shown.
Tests used:
[1] = tested on: Mycobacterium tuberculosis; assay: Antimycobacterial activity against Mycobacterium tuberculosis; type: functional
[2] = Selectivity index, ratio of MIC for Mycobacterium tuberculosis to cytotoxicity to african green monkey Vero cells; type: functional
[3] = Toxicity assessed as haemolysis in RBC; type: cell-based, Erythrocyte; conditions: red blood cells (RBC); read-out: LD50 (the source's name)
[4] = target: T1, Cell division protein FtsZ (Mycobacterium tuberculosis) (UniProt P9WN95); assay: Inhibition of Mycobacterium tuberculosis FtsZ
T1 sequence (whole entry): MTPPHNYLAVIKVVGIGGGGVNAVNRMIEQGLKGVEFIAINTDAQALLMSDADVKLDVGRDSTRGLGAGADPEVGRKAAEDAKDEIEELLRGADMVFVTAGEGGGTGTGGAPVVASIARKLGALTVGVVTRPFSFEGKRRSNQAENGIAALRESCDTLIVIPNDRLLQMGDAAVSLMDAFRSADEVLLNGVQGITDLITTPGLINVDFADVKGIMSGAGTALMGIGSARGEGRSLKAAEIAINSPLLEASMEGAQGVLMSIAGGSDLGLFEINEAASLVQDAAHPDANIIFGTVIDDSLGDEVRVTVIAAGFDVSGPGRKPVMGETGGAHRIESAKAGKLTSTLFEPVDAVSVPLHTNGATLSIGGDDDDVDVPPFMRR

[5] = target: T2, Enoyl-[acyl-carrier-protein] reductase [NADH] (Mycobacterium tuberculosis) (UniProt P9WGR1); assay: Inhibition of Mycobacterium tuberculosis InhA at 40 uM
T2 sequence (whole entry): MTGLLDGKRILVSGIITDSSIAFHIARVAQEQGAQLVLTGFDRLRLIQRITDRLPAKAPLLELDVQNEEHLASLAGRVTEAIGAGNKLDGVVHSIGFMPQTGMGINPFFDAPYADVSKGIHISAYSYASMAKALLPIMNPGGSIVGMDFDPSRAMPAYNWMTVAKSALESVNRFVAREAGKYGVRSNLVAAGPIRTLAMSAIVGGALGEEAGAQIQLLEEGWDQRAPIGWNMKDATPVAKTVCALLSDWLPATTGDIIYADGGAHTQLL

[6] = tested on: Mycobacterium tuberculosis; assay: Antimycobacterial activity against Mycobacterium tuberculosis H37Rv; type: functional
[7] = tested on: Mycobacterium tuberculosis; assay: Antimycobacterial activity against Mycobacterium tuberculosis H37Ra; type: functional
[8] = Selectivity index, ratio of MIC for Mycobacterium tuberculosis to cytotoxicity to […] V79 cells; type: functional

`CCCCOc1ccc2nc(C)cc(N/N=C/c3cccc4c(OC)cccc34)c2c1` gave an MIC [1] of 0.78 µg/mL (≈ 1.89 µM).

`CC1Nc2nc(NC(=O)Oc3ccccc3)cc(N)c2N=C1c1ccccc1` (stereo not drawn) showed an MIC [1] of 1.3 µg/mL (≈ 3.48 µM).

For `Clc1nc(C2CCCO2)c2ncn(Cc3ccccc3)c2n1` (stereo not drawn), the “Selectivity Index” value [2] was 10.6 and the MIC [1] was 0.78 µg/mL (≈ 2.48 µM).

`O=C(COc1cnccn1)N/N=c1\scc(-c2ccc(Br)cc2)n1-c1ccc(Cl)cc1[N+](=O)[O-]` gave an HC50 [3] greater than 500 µg/mL and an MIC [1] of 0.3 µg/mL (≈ 0.534 µM).

Compound `CCCCCCCCCCCCCCCCN[C@H](CC(=O)OCC)[C@@H]1O[C@@H]2OC(C)(C)O[C@@H]2C1OC` (stereo partly drawn) has an MIC [1] of 3.12 µg/mL (≈ 6.07 µM).

`CCOC(=O)Nc1cc(NCCCCN(CC)CC)c2nc(-c3ccccc3)c(-c3ccccc3)nc2n1` showed an ID50 [4] of 52 µM and an MIC [1] of 0.15 µg/mL (≈ 0.293 µM).

`O=[N+]([O-])c1cn2c(n1)OC[C@@H](OCc1ccc(OC(F)(F)F)cc1)C2` [PRETOMANID] gave an MIC [1] of 0.13 µg/mL (≈ 0.362 µM).

Work on `c1ccc(-c2ccc(CNc3ccc(CN4CCSCC4)cc3)cc2)cc1` yielded an MIC [1] of 0.5 µg/mL (≈ 1.33 µM).

For `CCCCCCCCCCCCCCCCOCCCCOP(=O)(O)C[C@@H]1O[C@H](CO)[C@@H](O)[C@@H]1O`, the MIC [1] was 3.13 µg/mL (≈ 5.97 µM).

Work on `CCCSc1nc(Cl)c(C#N)c(-c2ccc(F)cc2)n1` yielded an MIC [1] of 0.78 µg/mL (≈ 2.53 µM).

In the case of `CC(=O)NC[C@H]1CN(c2ccc(N3CCSCC3)c(F)c2)C(=O)O1` [SUTEZOLID], the MIC [1] is reported as no more than 0.125 µg/mL.

Work on `CN(C)S(=O)(=O)n1cnc2c(=S)[nH]cnc21` yielded an MIC [1] of 0.78 µg/mL (≈ 3.01 µM).

In the case of `[H][C@@]12CC[C@H](C(C)CCC(N)=O)[C@@]1(C)CC[C@]1([H])[C@@]3(C)CC[C@]4(C[C@@]3([H])C[C@@H](OC(C)=O)[C@@]21[H])OOC1(CC[C@@H](C)CC1)OO4` (stereo partly drawn), the MIC [1] is reported as 3.12 µg/mL (≈ 5.42 µM).

`CC(C)c1ccc(-c2c(N)nnc3c2c2ccccc2n3C)cc1` showed an MIC [1] of 1.42 µg/mL (≈ 4.49 µM).

`CCCCCCCCCCNC[C@H]1O[C@H](O[C@H]2O[C@H](CNCCCCCCCCCC)[C@@H](O)[C@H](O)[C@H]2O)[C@H](O)[C@@H](O)[C@@H]1O` gave an MIC [1] of 1.3 µg/mL (≈ 2.09 µM).

For `S=c1oc2c(Cl)cc(Cl)cc2c(=S)n1-c1cccc(Cl)c1`, the MIC [1] was 4 µg/mL (≈ 10.7 µM).

Compound `CC1(C)O[C@H]2OC(COCC(O)CNCCCCCCCCCCCCNCC(O)COCC3O[C@@H]4OC(C)(C)O[C@@H]4[C@H]4OC(C)(C)O[C@@H]34)[C@@H]3OC(C)(C)O[C@@H]3[C@H]2O1` (stereo partly drawn) has an MIC [1] of 1.56 µg/mL (≈ 1.87 µM).

With `NS#Cc1cc(SCc2ccccc2F)ccn1` the MIC [1] was 1.2 µg/mL (≈ 4.31 µM).

Work on `OC12CCCC(C1)SC(c1ccccc1)=N2` (stereo not drawn) yielded an MIC [1] of no more than 6.25 µg/mL.

Work on `Cc1ccc2nc(SCc3cc([N+](=O)[O-])cc([N+](=O)[O-])c3)[nH]c2c1` yielded an MIC [1] of 1.3 µg/mL (≈ 3.78 µM).

For `c1ccc(-c2ccc(CNc3cccc(-c4c[nH]cn4)c3)cc2)cc1`, the “Selectivity Index” value [2] was 16 and the MIC [1] was 4 µg/mL (≈ 12.3 µM).

In the case of `O=[N+]([O-])c1c[nH]cc1-c1ccc(Cl)cc1Cl`, the MIC [1] is reported as 1 µg/mL (≈ 3.89 µM).

For `CC(=O)/C(=C/C=C/[C@@H](OCc1ccccc1)[C@H](COCc1ccccc1)OCc1ccccc1)CCl`, the MIC [1] was 3.1 µg/mL (≈ 6.14 µM).

`O=[N+]([O-])c1ccc(-c2cnn(-c3nccc(C(F)(F)F)n3)c2)c([N+](=O)[O-])c1` showed an inhibition [5] of 91%, an MIC [1] of 2.5 µg/mL (≈ 6.57 µM) and an MIC [6] of 2.5 µg/mL (≈ 6.57 µM).

For `COc1nc2ccc(Br)cc2cc1[C@@H](c1ccccc1)[C@@](O)(CCN(C)C)c1cccc2ccccc12` [BEDAQUILINE], the MIC [1] was 0.03 µg/mL (≈ 0.054 µM).

Compound `CCCCCCCCCCS(=O)(=O)CC(N)=O` has an MIC [1] of 0.75 µg/mL (≈ 2.85 µM).

In the case of `COc1ccc(C(=O)Nc2ccc(C(=O)NN3C(=O)CSC3c3ccc(F)cc3)cc2)cc1` (stereo not drawn), the MIC [1] is reported as 6.25 µg/mL (≈ 13.4 µM).

With `N#Cc1c(N2CCN(c3ccc([N+](=O)[O-])cc3)CC2)[n+]([O-])c2ccccc2[n+]1[O-]` the MIC [1] was 0.1 µg/mL (≈ 0.255 µM).

For `CN(C)C/C=C(\c1ccc(Br)cc1)c1ccc(-c2ccccc2)cc1`, the MIC [7] was 1.6 µg/mL (≈ 4.08 µM), the “Selectivity Index” value [8] was less than 2 and the MIC [1] was 1.6 µg/mL (≈ 4.08 µM). For the same compound, the MIC [6] was 1.6 µg/mL (≈ 4.08 µM).

In the case of `CC(=O)NCCCC[C@H](OC(C)=O)[C@@H](COC(C)=O)OC(C)=O`, the MIC [1] is reported as no more than 6.25 µg/mL.

For `Cc1c(CN2CCN(C)CC2)cc(-c2ccc(Cl)cc2)n1-c1ccc(Cl)cc1`, the “Selectivity Index” value [2] was 5.6 and the MIC [1] was 0.7 µg/mL (≈ 1.69 µM).

Work on `COC(=O)c1ccccc1S(=O)(=O)NC(=O)Nc1nc(C)cc(C)n1` [SULFOMETURON METHYL] yielded an MIC [1] of 0.3 µg/mL (≈ 0.823 µM).

For `O=C(Nc1ncccc1[N+](=O)[O-])c1c(O)cccc1Cl`, the MIC [1] was less than 1 µg/mL.

From ChEMBL document CHEMBL1143401, “New small-molecule synthetic antimycobacterials” (Antimicrob Agents Chemother, 2005)
